Assays:
Assay type in all cases: cell-based
[1] = test system: SK-MEL-5 melanoma cell line; assay: NCI five-dose testing; settings: Homo sapiens; for IC50 / IC (TGI): SK-MEL-5; for LC50 (lethal concentration 50): SK-MEL-5, read-out: LD50 (lethal dose 50); for IC (TGI): read-out: TGI (total growth inhibition concentration)
Experimental: (§1) Screening against the cancer cell lines was carried out at the National Cancer Institute (NCI, Bethesda, Maryland, USA) applying the standard protocol of the NCI[22].

[2] = test system: HT-29 colon cancer cell line; assay: NCI five-dose testing; settings: Homo sapiens; for CC50: HT-29, read-out: LD50 (lethal dose 50); for IC50 / IC (TGI): HT-29; for IC50: read-out: IC50; for IC (TGI): read-out: TGI (total growth inhibition concentration)
Experimental: as §1

[3] = test system: A498 renal cancer cell line; assay: NCI five-dose testing; settings: Homo sapiens; for IC50 / IC (TGI): A498; for LC50 (lethal concentration 50%): A498, read-out: LD50 (lethal dose 50); for IC (TGI): read-out: TGI (total growth inhibition concentration)
Experimental: as §1

[4] = test system: PC-3 prostate cancer cell line; assay: NCI five-dose testing; settings: Homo sapiens; for LC50 (lethal concentration 50): PC-3, read-out: LD50 (lethal dose 50); for IC50 / IC (TGI): PC-3; for IC50: read-out: IC50; for IC (TGI): read-out: TGI (total growth inhibition concentration)
Experimental: as §1

[5] = test system: HOP-92 non-small cell lung cancer cell line; assay: NCI five-dose testing; settings: Homo sapiens; for IC50: HOP-92; for IC (TGI): HOP-92, HOP-92, read-out: TGI (total growth inhibition concentration); for LD50 (lethal dose 50): HOP-92, read-out: LD50 (lethal dose 50)
Experimental: as §1

[6] = test system: U251 CNS cancer cell line; assay: NCI five-dose testing; settings: Homo sapiens; for CC50: U-251, read-out: LD50 (lethal dose 50); for IC50 / IC (TGI): U-251, U251; for IC50: read-out: IC50; for IC (TGI): read-out: TGI (total growth inhibition concentration)
Experimental: as §1

[7] = test system: OVCAR-4 ovarian cancer cell line; assay: NCI five-dose testing; settings: Homo sapiens; for IC50 / IC (TGI): OVCAR-4; for LC50 (lethal concentration 50): OVCAR-4, read-out: LD50 (lethal dose 50); for IC (TGI): read-out: TGI (total growth inhibition concentration)
Experimental: as §1

[8] = test system: MDA-MB-468 breast cancer cell line; assay: NCI five-dose testing; settings: Homo sapiens; for IC50 / IC (TGI): MDA-MB-468; for CC50: MDA-MB-468, read-out: LD50 (lethal dose 50); for IC (TGI): read-out: TGI (total growth inhibition concentration)
Experimental: as §1

[9] = test system: K-562 leukaemia cell line; assay: NCI five-dose testing; settings: for CC50: K562, read-out: LD50 (lethal dose 50); for IC50 / IC (TGI): K-562; for IC (TGI): read-out: TGI (total growth inhibition concentration)
Experimental: as §1

CNS cancer cell lines = assay: NCI five-dose testing, subpanel mean; settings: subpanel IV: CNS cancer
Experimental: as §1

melanoma cell lines = assay: NCI five-dose testing, subpanel mean; settings: subpanel V: melanoma
Experimental: as §1

renal cancer cell lines = assay: NCI five-dose testing, subpanel mean; settings: subpanel VII: renal cancer
Experimental: as §1

breast cancer cell lines = assay: NCI five-dose testing, subpanel mean; settings: subpanel IX: breast cancer
Experimental: as §1

colon cancer cell lines = assay: NCI five-dose testing, subpanel mean; settings: subpanel III: colon cancer
Experimental: as §1

Leukaemia cell lines = assay: NCI five-dose testing, subpanel mean; settings: subpanel I: Leukaemia
Experimental: as §1

[10] = test system: prostate cancer cell lines; assay: NCI five-dose testing, subpanel mean; settings: subpanel VIII: prostate cancer
Experimental: as §1

[11] = test system: non-small cell lung cancer cell lines; assay: NCI five-dose testing, subpanel mean; settings: subpanel II: non-small cell lung cancer
Experimental: as §1

[12] = test system: ovarian cancer cell lines; assay: NCI five-dose testing, subpanel mean; settings: subpanel VI: ovarian cancer
Experimental: as §1

NCI-60 cell line panel = assay: NCI-60 single-dose (10 µM) antiproliferative screening, mean over panel; settings: single-dose 10 µM, 60-cancer cell line screening
Experimental: as §1
The final target compounds were submitted to the National Cancer Institute (NCI), Maryland, USA[23]. Thirty-one compounds were selected to be tested over 60 cell lines at single dose 10 µM.

Compound	IC50 [1]	LC50 (lethal concentration 50) [1]	IC (TGI) [1]	CC50 [2]	IC50 [2]	IC (TGI) [2]	IC50 [3]	LC50 (lethal concentration 50%) [3]	IC (TGI) [3]	LC50 (lethal concentration 50) [4]	IC50 [4]	IC (TGI) [4]	IC50 [5]	IC (TGI) [5]	LD50 (lethal dose 50) [5]	CC50 [6]	IC50 [6]	IC (TGI) [6]	IC50 [7]	LC50 (lethal concentration 50) [7]	also measured
COc1cccc(-c2nn(-c3ccccc3)cc2-c2ccnc(NCCNS(=O)(=O)c3ccc(C(F)(F)F)cc3)c2)c1 [Compound 1g, N-(2-((4-(3-(3-Methoxyphenyl)-1-phenyl-1H-pyrazol-4-yl)pyridin-2-yl)amino)ethyl)-4-(trifluoromethyl)benzenesulfonamide]	1.72 µM	5.6 µM	3.1 µM	37.7 µM	2.32 µM	5.7 µM	3.4 µM	> 100 µM	6.5 µM	> 100 µM	2.86 µM	26.7 µM	2.12 µM	6.8 µM	> 100 µM	63.4 µM	3.54 µM	13.9 µM	2.94 µM	> 100 µM	IC (TGI) [7]: > 100 µM; IC50 [8]: 3.31 µM; CC50 [8]: > 100 µM; IC (TGI) [8]: > 100 µM; CC50 ([9]; Homo sapiens): > 100 µM; IC50 ([9]; Homo sapiens, K562): 2.87 µM; IC (TGI) ([9]; Homo sapiens, K562): 19 µM; IC50 (CNS cancer cell lines): 5.28 µM; IC50 (melanoma cell lines): 4.94 µM; IC50 (renal cancer cell lines): 5.32 µM; IC50 (breast cancer cell lines): 4.05 µM; IC50 (colon cancer cell lines): 4.91 µM; IC50 (Leukaemia cell lines): 3.35 µM; IC50 [10]: 13 µM; IC50 [11]: 6.36 µM; IC50 [12]: 6.1 µM; inhibition at 10 µM (NCI-60 cell line panel): 92.8%
O=S(=O)(NCCCNc1cc(-c2cn(-c3ccccc3)nc2-c2cccc(O)c2)ccn1)c1ccc(C(F)(F)F)cc1 [Compound 2o, N-(3-((4-(3-(3-Hydroxyphenyl)-1-phenyl-1H-pyrazol-4-yl)pyridin-2-yl)amino)propyl)-4-(trifluoromethyl)benzenesulfonamide]	1.57 µM	5.6 µM	2.9 µM	8.1 µM	0.5 µM	3.1 µM	1.09 µM	6.3 µM	2.6 µM	18.9 µM	2.87 µM	4.5 µM	1.41 µM	3.6 µM	9.7 µM	8.1 µM	1.78 µM	3.2 µM	3.06 µM	> 100 µM	IC (TGI) [7]: 5.1 µM; IC50 [8]: 1.85 µM; CC50 [8]: > 100 µM; IC (TGI) [8]: 5.5 µM; CC50 ([9]; Homo sapiens): > 100 µM; IC50 ([9]; Homo sapiens, K562): 0.61 µM; IC (TGI) ([9]; Homo sapiens, K562): 5.3 µM; IC50 [9]: 0.617 µM; IC50 (CNS cancer cell lines): 1.71 µM; IC50 (melanoma cell lines): 1.72 µM; IC50 (renal cancer cell lines): 2.03 µM; IC50 (breast cancer cell lines): 1.87 µM; IC50 (colon cancer cell lines): 1.64 µM; IC50 (Leukaemia cell lines): 1.9 µM; IC50 [10]: 2.79 µM; IC50 [11]: 2.12 µM; IC50 [12]: 2.32 µM
